Source: US9340500B2, “Aromatic heterocyclic derivative having TRPV4-inhibiting activity” (SHIONOGI & CO., LTD., priority 2011, dated 2016)
≈ marks a conversion by molar mass, not a printed value.

What was measured:
Solubility test = format: physicochemical; details: fassgf or other biorelevant, kinetic from dmso stock, artificial intestinal juice pH 6.8, 16 hours at 25° C.
Experimental: The solubility of each compound is determined under 1% DMSO addition conditions. A 10 mmol/L solution of the compound is prepared with DMSO, and 6 μL of the compound solution is added to 594 μL of an artificial intestinal juice (water and 118 mL of 0.2 mol/L NaOH reagent are added to 250 mL of 0.2 mol/L potassium dihydrogen phosphate reagent to reach 1000 mL) with a pH of 6.8. The mixture is left standing for 16 hours at 25° C., and the mixture is vacuum-filtered. The filtrate is two-fold diluted with methanol/water=1/1, and the compound concentration in the filtrate is measured with HPLC or LC/MS/MS by the absolute calibration method.

human TRPV4 [1] = target: T1, human TRPV4 (Homo sapiens (Human), UniProt Q9HBA0); experiment: Test Example 3: measurement of TRPV4 inhibitory activity (Fluo-3, FDSS 3000, 4α-PDD); format: cell-based; details: hTRPV4/CHO cells, calculated from IC50 and 4α-PDD EC50
T1 sequence (Q9HBA0 whole entry): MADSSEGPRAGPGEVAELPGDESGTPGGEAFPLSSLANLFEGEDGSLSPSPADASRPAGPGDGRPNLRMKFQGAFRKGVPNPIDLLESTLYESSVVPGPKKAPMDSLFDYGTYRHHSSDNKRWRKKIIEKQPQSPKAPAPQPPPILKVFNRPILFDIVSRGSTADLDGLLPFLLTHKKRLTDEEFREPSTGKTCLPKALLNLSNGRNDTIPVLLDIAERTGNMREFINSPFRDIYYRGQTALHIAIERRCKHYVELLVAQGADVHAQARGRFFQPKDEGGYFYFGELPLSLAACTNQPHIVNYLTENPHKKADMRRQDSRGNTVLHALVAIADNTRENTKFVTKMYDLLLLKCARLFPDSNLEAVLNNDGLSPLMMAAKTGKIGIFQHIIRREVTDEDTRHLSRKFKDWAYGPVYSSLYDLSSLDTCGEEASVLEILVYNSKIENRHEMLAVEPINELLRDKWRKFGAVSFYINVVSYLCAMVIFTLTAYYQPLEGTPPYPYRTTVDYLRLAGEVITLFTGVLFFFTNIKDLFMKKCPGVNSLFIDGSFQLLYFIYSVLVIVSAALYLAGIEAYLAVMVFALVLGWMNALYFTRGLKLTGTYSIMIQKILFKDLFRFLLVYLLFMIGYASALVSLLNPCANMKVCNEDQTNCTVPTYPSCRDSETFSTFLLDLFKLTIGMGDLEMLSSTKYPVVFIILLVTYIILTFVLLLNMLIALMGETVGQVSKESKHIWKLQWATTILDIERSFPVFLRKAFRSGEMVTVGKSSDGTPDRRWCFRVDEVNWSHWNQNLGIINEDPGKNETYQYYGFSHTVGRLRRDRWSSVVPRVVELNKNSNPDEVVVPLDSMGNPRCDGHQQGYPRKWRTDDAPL
Experimental: (§1) For each compound, TRPV4 inhibitory activity was measured using cells.
(§2) (1) The TRPV4 inhibitory activity was measured using CHO-K1 cells stably expressing human TRPV4 (hTRPV4/CHO cells).
(2) Frozen cells were thawed and subcultured with the medium (MEM-α, 10% FBS, […], 50 unit/mL penicillin, 50 μg/mL streptomycin, 1 mg/mL G418).
(3) The 96-well plates which hTRPV4/CHO cells were seeded at densities of 2×10^4 cells/well in the culture medium and cultured in a CO2 incubator in the presence of 5% CO2 at 37° C. for 24 h was used as assay plates.
(4) The assay plate was washed with assay buffer (Hanks, […], […], pH7.4).
(5) Fluo-3, fluorescent dye for Ca influx assay was added to each well, then the assay plate was incubated in a CO2 incubator in the presence of 5% CO2 at 37° C. for one hour (final conc.; 5 μmmol/L Fluo-3).
(6) The assay plate was washed with the assay buffer, and the buffer was remained at 30 μL/well. Then the assay plate was incubated for 10 min at 37° C.
(7) Diluted compound solution was dispensed to each well in the compound plate, and mixed with built-in Pipette and Mixer of the fluorescence analysis system FDSS 3000 (Hamamatsu Photonics).
(8) 50 μL of 4α-PDD solution (concluding 0.1% Pluronic F-127) was applied to each well of assay plate and mixed.
(9) The fluorescent intensity was measured by FDSS 3000 for 8 min from the point of time addition the compound solution, at Ex 480 nm, Em 540 nm wavelength.
TRPV4 inhibitory activity (Ki value) of a compound was evaluated according to the following procedure.
(10) In the presence of the compound, the difference between maximal and minimal of fluorescent intensity value for 8 min from just before addition of 4α-PDD solution was calculated, and it was referred as Max-Min value. Max-Min value of the Ruthenium Red at 10 μM was defined as 100% inhibitory activity, Max-Min value in the absence of the compound was defined as 0% inhibitory activity. The TRPV4 inhibitory activity of the compound was calculated by the following formula. (1−(Max-Min value of the compound−100% inhibitory activity)/(0% inhibitory activity−100% inhibitory activity))×100 (11) By the following formula, inhibitory activity was calculated at 10 points with three fold serial dilution, in the final concentration of the compound from 10 μmmol/L to 0.5 nmol/L. The IC50 value was calculated by dose-response curve. 100−[(fluorescent intensity in the presence of the compound−fluorescent intensity of back ground)/(total fluorescent intensity−fluorescent intensity of back ground)]×100 (12) In the presence of the compound, activity of 4α-PDD was measured at 9 points with three fold serial dilution from 20 μmol/L. Activity of 4α-PDD was calculated by the following formula. (Max-Min value of the each 4α-PDD concentration−0% activity)/(100% activity−0% activity))×100 (13) Effective activity was calculated in 4α-PDD the above. The EC50 value was calculated by dose-response curve. (14) The Ki value of a compound was calculated by the following formula. Ki (nmol/L)=IC50 value (nmol/L)/([A]/EC50 value (nmol/L)) [A]; Concentration of agonist (nmol/L)

human TRPV4 [2] = target: T1, human TRPV4; experiment: Test Example 1: measurement of TRPV4 inhibitory activity (Fluo 4-AM, FLIPR TETRA, 4α-PDD 1 μmol/L); format: cell-based; details: hTRPV4/CHO cells; for IC50: 4α-PDD 1 μmol/L; for Ki: calculated from IC50 and 4α-PDD EC50
Experimental: as §1, §2
(2) In the day before the experimental day, frozen cell were thawed and washed with the culture medium (MEM-α, 10% FBS, 2 mmol/L GlutaMax, 50 unit Penicillin, 50 μg/mL Streptomycin). Then cells were suspended in the culture medium.
(3) The 384-well plates which hTRPV4/CHO cells were seeded at densities of 4000 cells/well in the culture medium and cultured in a CO2 incubator in the presence of 5% CO2 at 37° C. for overnight was used as assay plates.
(4) The assay plate was washed with assay buffer (Hanks, 20 mmol/L HEPES, 2.5 mmol/L probenecid, pH7.4), and the buffer were remained at 20 μL/well.
(5) 10 μl of dye loading buffer (9 μmol/L Fluo 4-AM, 0.09% Pluronic F-127/assay buffer) was added to each well, then the assay plate was incubated in a CO2 incubator in the presence of 5% CO2 at 37° C. for one hour. (final 3 μmol/L Fluo4-AM).
(6) The assay plate was washed with the assay buffer, and the buffers were remained at 20 μL/well. Then the assay plate was incubated for 10 min at room temperature.
(7) Diluted compound solution was dispensed to each well in the compound plate, and mixed with built-in Pipette and Mixer of the Fluorescence analysis system FLIPR TETRA (Molecular devices).
(8) After incubation for 5 min, 20 μL of 4α-PDD solution were applied to each well of assay plate and mixed with the FLIPR TETRA. (final 1 μmol/L 4α-PDD)
(9) The fluorescent intensity was measured with FLIPR TETRA system for 10 min from the point of time addition the compound solution, at Ex 470-495 nm, Em 515-575 nm wavelength.
TRPV4 inhibitory activity (IC50 value and Ki value) of a compound was evaluated according to the following procedure.
(10) In the presence of the compound, the difference between maximal and minimal of fluorescent intensity value for 5 min from just before addition of 4α-PDD solution was calculated, and it was referred as Max-Min value. Max-Min value of the Ruthenium Red at 20 μM was defined as 100% inhibitory activity, Max-Min value in the absence of the compound was defined as 0% inhibitory activity. The TRPV4 inhibitory activity of the compound was calculated by the following formula. (1−(Max-Min value of the compound−100% inhibitory activity)/(0% inhibitory activity−100% inhibitory activity))×100 (11) Inhibitory activity was calculated at 10 points with three fold serial dilution, in the final concentration of the compound from 10 μmmol/L to 0.5 nmol/L, the IC50 value was calculated by logistic approximation method. (12) In the absence of the compound, the fluorescent intensity was measured as the same method with 10, 1, 0.5, 0.2, and 0 μmol/L as final concentration of 4α-PDD. The difference of minimal and maximal fluorescent intensity value for 5 min from just before addition of 4α-PDD solution was calculated, and it was referred as Max-Min value. Max-Min value of the 4α-PDD at 10 μmol/L was defined as 100% activity, Max-Min value in the absence of 4α-PDD was defined as 0% activity. The TRPV4 activity of each concentration of 4α-PDD was calculated by the following formula. (Max-Min value of the each 4α-PDD concentration−0% activity)/(100% activity−0% activity))×100 (13) Effective activity was calculated in 5 concentrations of 4α-PDD the above. The EC50 value was calculated by logistic approximation method. The Ki value of a compound was calculated by the following formula. Ki (nmol/L)=IC50 value (nmol/L)/(1+[…] (test 4α-PDD concentration (nmol/L)/EC50 value (nmol/L))

[3] = artificial intestinal juice (phosphate buffer) with 1% DMSO

Structure (SMILES) | solubility at 16 h (Solubility test; [3]) [µM] | Ki (human TRPV4 [1]) [µM] | IC50 (human TRPV4 [2]) [µM] | Ki (human TRPV4 [2]) [µM] | solubility at 16 h (Solubility test; artificial intestinal juice (phosphate buffer), 1% DMSO) [µM]
Cc1c(C(=O)Nc2ccc(Cl)cn2)cc(-c2ccccc2)n1CCCN1CCOCC1 [Compound I-004] | 39.2 (≈ 17.2 µg/mL) | 1.57 |  |  | 
CCOC(=O)Cc1csc(NC(=O)c2cc(-c3ccccc3)n(CCCN3CCOCC3)c2C)n1 [Compound I-005] | > 50 | 1.7 |  |  | 
Cc1c(C(=O)Nc2cccc(C(F)(F)F)c2)cc(-c2ccccc2)n1CCCN1CCCCC1 [Compound I-008] |  | 0.327 | 0.082 |  | 
COCCCn1c(-c2ccccc2)cc(C(=O)Nc2cccc(C(F)(F)F)c2)c1C [Compound I-010] |  | 0.714 | 0.8 |  | 
Cc1cc(C(=O)Nc2cccc(C(F)(F)F)c2)c(C)n1CCCN1CCOCC1 [Compound I-017] | > 50 | 1.56 |  |  | 
Cc1c(C(=O)Nc2ccc(C(F)(F)F)cc2)cc(-c2ccccc2)n1CCCN1CCOCC1 [Compound I-024] |  | 0.755 | 0.34 |  | 
Cc1c(C(=O)Nc2cccc(C(F)(F)F)c2)cc(-c2ccccn2)n1CCCN1CCOCC1 [Compound I-073] | 28.9 (≈ 13.7 µg/mL) |  | 0.34 | 0.16 | 
CC(=O)N1CCC(c2cc(C(=O)Nc3cccc(C(F)(F)F)c3)c(C)n2CCCN2CCOCC2)CC1 [Compound I-077] | > 50 |  | 4.7 | 2 | 
Cc1c(C(=O)Nc2cccc(C(F)(F)F)c2)cc(C2CCN(S(C)(=O)=O)CC2)n1CCCN1CCOCC1 [Compound I-078] | 20.1 (≈ 11.2 µg/mL) |  | 4.9 | 2.1 | 
Cc1c(C(=O)Nc2cccc(C(F)(F)F)c2)cc(C#N)n1CCCN1CCOCC1 [Compound I-079] | 40.2 (≈ 16.9 µg/mL) |  | 7.8 | 3.2 | 
Cc1c(C(=O)Nc2cccc(C(F)(F)F)c2)cc(-c2ccccc2)n1CCN1CCOCC1 [Compound I-083] |  | 0.443 | 0.4 |  | 
O=C(Nc1cccc(C(F)(F)F)c1)c1cc(-c2ccccc2)nn1CCCN1CCOCC1 [Compound I-085] | 14.5 (≈ 6.65 µg/mL) |  | 1.3 | 0.59 | 
O=C(Nc1cccc(C(F)(F)F)c1)c1cc(-c2ccccc2)n(CCCN2CCOCC2)n1 [Compound I-086] | 8.3 (≈ 3.81 µg/mL) |  | 3.4 | 1.6 | 
Cc1c(C(=O)Nc2cccc(C(F)(F)F)c2)nc(-c2ccccc2)n1CCCN1CCOCC1 [Compound I-087] |  |  |  |  | 5.2 (≈ 2.46 µg/mL)
O=C(Nc1cccc(C(F)(F)F)c1)c1cnc(-c2ccccc2)c(CCCN2CCOCC2)c1 [Compound I-088] | 35.1 (≈ 16.5 µg/mL) |  | 5.8 | 2.8 | 

The next lines start with results.

solubility at 16 h (Solubility test; [3]) [µM] | Ki (human TRPV4 [1]) [µM] | IC50 (human TRPV4 [2]) [µM] | Ki (human TRPV4 [2]) [µM] | Structure (SMILES) | solubility at 16 h (Solubility test; artificial intestinal juice (phosphate buffer), 1% DMSO) [µM]
 | 1.06 | 2.3 |  | Cc1c(C(=O)Nc2cccc(C(F)(F)F)c2)cc(-c2ccccc2)n1CCCO [Compound I-006] | 
 | 1.44 | 2.6 |  | CC(=O)N1CCN(CCCn2c(-c3ccccc3)cc(C(=O)Nc3cccc(C(F)(F)F)c3)c2C)CC1 [Compound I-015] | 
 | 1.13 | 3.2 |  | CC(=O)NCCCn1c(-c2ccccc2)cc(C(=O)Nc2cccc(C(F)(F)F)c2)c1C [Compound I-025] | 
 | 0.936 | 1.8 |  | COC(=O)NCCCn1c(-c2ccccc2)cc(C(=O)Nc2cccc(C(F)(F)F)c2)c1C [Compound I-027] | 
 | 1.71 | 3.8 |  | O=C(Nc1cccc(C(F)(F)F)c1)c1cc(-c2ccccc2)n(CCCN2CCOCC2)c1C(F)(F)F [Compound I-028] | 
 | 1.61 | 0.64 |  | Cc1c(C(=O)Nc2cccc(C(F)(F)F)c2)cc(-c2ccccc2)n1CCCN(C)CC(C)C [Compound I-032] | 
26.8 (≈ 12.6 µg/mL) | 0.655 |  |  | Cc1c(C(=O)Nc2cccc(C(F)(F)F)c2)cc(-c2ccccc2)n1CCCN(C)CC1CC1 [Compound I-033] | 
> 50 | 0.352 |  |  | Cc1c(C(=O)Nc2cccc(C(F)(F)F)c2)cc(-c2ccccc2)n1CCCN(C)CC(C)(C)CN(C)C [Compound I-038] | 
 | 0.418 | 0.24 |  | Cc1c(C(=O)Nc2cccc(C(F)(F)F)c2)cc(-c2ccccc2)n1CCCN(C)C(=O)C1CCCC1 [Compound I-049] | 
 | 0.251 | 0.51 |  | Cc1c(C(=O)Nc2cccc(C(F)(F)F)c2)cc(-c2ccccc2)n1CCCN(C)C(=O)c1ccno1 [Compound I-063] | 
 | 1.68 | 0.59 |  | CC(=O)N(C)CCCn1c(-c2ccccc2)cc(C(=O)Nc2cccc(C(F)(F)F)c2)c1C [Compound I-070] | 
> 50 |  | 1.7 | 0.78 | Cc1c(C(=O)Nc2cccc(C(F)(F)F)c2)cc(-c2ccncc2)n1CCCN1CCOCC1 [Compound I-074] | 
 | 1.61 | 3.9 |  | Cc1c(NC(=O)Nc2cccc(C(F)(F)F)c2)cc(-c2ccccc2)n1CCCN1CCOCC1 [Compound I-081] | 
